Measured values published in US20080267948A1, “Croos-B Structure Binding Compounds” (priority 2005, published 2008).
Entries after “also recorded” stand apart in the source; their conditions may differ.

Columns and labels:
tPA/plasminogen = target: T1, tPA/plasminogen (Homo sapiens, UniProt P00750); assay: tPA/plasminogen activation by pre-formed misfolded OVA in the presence of compounds; assay type: biochemical; details: 80-fold or 160-fold diluted compound and misfolded OVA stocks of 1 mg/ml
T1 construct: purchased Boehringer Ingelheim Actilyse
T1 sequence (P00750 36-562): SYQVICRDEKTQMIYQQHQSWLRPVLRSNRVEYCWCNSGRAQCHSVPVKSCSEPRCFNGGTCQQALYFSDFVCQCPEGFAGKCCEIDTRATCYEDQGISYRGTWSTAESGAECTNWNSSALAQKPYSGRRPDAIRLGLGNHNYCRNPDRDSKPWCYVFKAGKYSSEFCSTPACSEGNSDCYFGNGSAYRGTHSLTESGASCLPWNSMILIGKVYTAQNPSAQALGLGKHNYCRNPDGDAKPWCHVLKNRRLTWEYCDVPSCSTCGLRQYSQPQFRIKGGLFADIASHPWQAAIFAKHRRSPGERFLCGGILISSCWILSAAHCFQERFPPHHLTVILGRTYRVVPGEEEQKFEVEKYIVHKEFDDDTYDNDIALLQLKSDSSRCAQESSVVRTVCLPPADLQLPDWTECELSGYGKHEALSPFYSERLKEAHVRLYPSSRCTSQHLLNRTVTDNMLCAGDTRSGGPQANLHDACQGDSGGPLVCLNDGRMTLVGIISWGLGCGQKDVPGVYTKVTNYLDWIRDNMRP
Protocol: […] Negative control was buffer without OVA. […] In addition, it was assessed whether the compounds interfere with absorbance readings at 405 nm, with converted chromogenic substrate. […] The yellow solution is divided over wells of an ELISA plate. […] Signals are compared and related to the control.

tPA = tPA (Homo sapiens, UniProt P00750); assay: tPA serine protease activity with OVA heated in the presence of compounds (substrate S-2765); assay type: biochemical; set-up: purchased Boehringer Ingelheim Actilyse; details: OVA heated with 1 mg/ml compound, 80-, 160- or 320-fold diluted, 100 nM tPA
Sequence of tPA (P00750 36-562): as above
Protocol: For this purpose, the influence of the compounds on heat-denaturation of OVA was analyzed (see above: Thioflavin T fluorescence measurements). Heated OVA at 1 mg/ml in PBS in the presence or absence of 1 mg/ml of the twelve compounds listed in Table 7 in PBS/DMSO (final DMSO concentration 1%) was used 80-fold or 160-fold or 320-fold diluted (final heated OVA concentration and compound concentration was 12.5 or 6.3 or 3.1 μg/ml; final DMSO concentration was 0.013% and 0.006% and 0.003%).

human blood platelets = assay: Platelet aggregation (aggregometric assay with washed platelets); assay type: cell-based; details: for platelet aggregation by compound alone: 25 or 50 μg/ml ellagic acid, hydrate
Protocol: The influence of amyloid-β(1-40) E22Q Dutch type (Aβ) peptide aggregates with cross-β structure conformation on blood platelet aggregation was tested with washed platelets in an aggregometric assay. Freshly drawn human aspirin free blood was mixed gently with citrate buffer to avoid coagulation. Blood was spinned for 15′ at 150*g at 20° C. and supernatant was collected; platelet rich plasma (PRP). […] After spinning down the platelets upon centrifugation for 15′ at 330*g at 20° C., the pellet was resuspended in HEPES-Tyrode buffer pH 6.5. Prostacyclin was added to a final concentration of 10 ng/ml, and the solution was centrifuged for 15′ at 330*g at 20° C., with a soft brake. The pellet was resuspended in HEPES-Tyrode buffer pH 7.2 in a way that the final platelet number was adjusted to 200,000/μl. Platelets were kept at 37° C. for at least 30′, before use in the assays, to ensure that they were in the resting state.
Aggregation of platelets was monitored in an aggregometer (Chrono-Log Corporation, Havertown, Pa., USA) for 15 minutes at 37° C. with a magnet stirring speed of 900 rpm. First, 270 μl of platelet solution was pipetted in the cuvettes and after 1 minute of stirring, 30 μl of preincubated (5 minutes, RT) Aβ and Hematein solution or control was added. The hematein stock was 10 mg/ml in HEPES-Tyrode buffer. The Aβ stock was 1 mg/ml. For blank readings unstirred HEPES Tyrode buffer was used. The aggregation is expressed as the percentage of the light transmission (0-100%). As a positive control, synthetic thrombin receptor activating peptide (TRAP) induced platelet aggregation was used. A control experiment was performed to study the influence of the red colour of hematein on the light transmission. For this, 4 μM TRAP was added at time 1 minute to the platelets, then hematein was added after 6 minutes of aggregation. The platelets were used for not more than 4 hours after isolation to reduce variations in sensitivity amongst subsequent measurements.
Ellagic acid was first dissolved to 100 mg/ml in DMSO, and then further diluted to 1 mg/ml in HBS buffer. Final concentrations of Aβ and ellagic acid in the aggregation assay were 50 μg/ml and 25/50 μg/ml, respectively. In addition, the influence of ellagic acid alone on platelet aggregation was tested. As a control, the influence of 0.08% DMSO on 50 μg/ml Aβ-induced platelet aggregation was analyzed. The 100% DMSO of the ellagic acid stock was diluted 2000 and 4000×, resulting in […] final DMSO concentrations in the aggregation assay.

O=c1oc2c(O)c(O)cc3c(=O)oc4c(O)c(O)cc1c4c23 [compound 117, Ellagic acid hydrate]
influence on tPA/plasminogen activation by pre-formed misfolded OVA (tPA/plasminogen): Full block of tPA/plasminogen activation by misfolded OVA | influence on tPA protease activity of OVA heated in the presence of compound (tPA): Potentiation of tPA protease activity | influence on Aβ induced platelet aggregation (human blood platelets; 25 and 50 μg/ml ellagic acid hydrate, 100 μg/ml Aβ): further enhances amyloid-β triggered aggregation | platelet aggregation by compound alone (human blood platelets; listed as ellagic acid hydrate): potent activator of platelets resulting in their aggregation; also recorded: Stimulation of platelet aggregation | platelet aggregation by compound alone (human blood platelets; listed as ellagic acid): strong inducer of aggregation
